Experimental data taken from US5283243A, “Piperidinoalkylbenzoxazine and piperidinoalkylbenzothiazine compounds, and medicaments containing them” (Kali-Chemie Pharma GmbH, priority 1990, dated 1994).
Where two headings read alike, the source gives them in different places.

What was measured:
[1] = system: PAF-induced aggregation of rabbit blood platelets; experiment: Anti-PAF activity in vitro, inhibition of PAF-induced platelet aggregation; assay type: cell-based, rabbit (New Zealand hybrids); conditions: test substance concentration of 10^-5 mole/l, pH 7.4
Source text: 4. Determination of Anti-PAF Activity In Vitro
PAF (=Platelet Activating Factor) is a phospholipid mediator which has many effects. Activation of platelet aggregation induces protracted broncho-contraction and hyper-reactivity of the air paths.
In this test the effect of the test substances on platelet aggregation induced by adding PAF to a suspension of platelets obtained from rabbit blood is investigated using the method described by Mikashima et al. (Jap. J. Pharmacol. 44 (1987) 387-391).
A suspension of platelets obtained from rabbit blood containing 4×10^9 platelets/ml in a modified Tyrode buffer solution (=Tyrode solution with 1.3 mM/1 CaCl2 and 2.5 g/l gelatine added) adjusted to pH 7.4 was used. Tyrode solution is an aqueous solution containing 136.9 mmoles NaCl, 2.68 mmoles KCl, 2.31 mmoles CaCl2, 1.0 mmole MgCl2, 11.9 mmoles NaHCO3, 1.45 mmoles NaH2 PO4 and 5.55 mmoles glucose per liter. The platelets were obtained from 10 ml blood samples from each of three rabbits (New Zealand hybrids, body weight 3-4 kg). For this the blood samples were treated with ethylenediamine tetraacetic acid and washed according to the method of Artley et al. (Brit. J. Hematol. 19 (1970), 7-17). […]
To carry out the test 50 μl of the platelet suspension and 10 μl of a 40×10^-5 molar solution of the compound being investigated were added with stirring (1,000 rpm) to 330 μl of the modified Tyrode buffer solution in an aggregation tube provided with a small magnetic stirrer. […] The aggregation occurring in the aggregation tubes was measured over 4-5 minutes with the aid of a computerized aggregometer.
The aggregation which occurred in test tubes containing only platelet suspension was evaluated as 0%, whereas the aggregation which occurred in test tubes containing platelet suspension and PAF preparation was evaluated as 100%. The aggregation which still occurred during the inhibition of the PAF induced platelet aggregation due to the addition of the test substances was measured, and the resulting aggregation inhibition was calculated therefrom in %.

[2] = system: cyclooxygenase (6-keto-PGF1α release); experiment: Cyclooxygenase inhibition: 6-keto-PGF1α release from zymosan-stimulated mouse peritoneal macrophage cells; assay type: cell-based; conditions: Peritoneal macrophage cell, read-out: In vitro % inhibition upon release of 6-keto-PGF1α
Source text: (§1) 5. In vitro Determination of Cyclooxygenase Inhibition and 5-Lipoxygenase Inhibition
(§2) After a cell is activated, arachidonic acid contained in cell membranes is metabolized in two ways. Leucotrienes, inter alia leucotriene C4, are formed due to the action of the enzyme 5-lipoxyqenase (=5-LO), and prostanoids are formed due to the action of the enzyme cyclooxygenase (=CO). In in vitro systems these metabolites are secreted from the cell.
(§3) To evaluate the cyclooxygenase-inhibiting and 5-lipoxygenase-inhibiting properties of the test substances, their inhibitory activity on the biosynthesis of the arachidonic acid derivatives leucotriene C4 (=LTC4) and 6-keto-prostaglandin F1α (=6-keto-PGF1 α) was determined in vitro on mouse peritoneal macrophage cells. For this purpose the LTC4 and 6-keto-PGF1 α contents of a mouse peritoneal macrophage cell culture medium were determined by zymosan stimulation as described by Scott et al. (J. Exp. Med. 152 (1980), 324-335) and by Fradin et al., (Prostaglandins, 33 (1987), 579-589).
(§4) A cell suspension containing peritoneal cells from male mice 8-10 weeks old was obtained in a known manner. A solution marketed under the designation RPMI 1640 (Manufactured by Gibco) was used as the cell culture medium, to which heparin (10 international units/ml) and antibiotics were added according to the procedure of Bonney et al. (Biochem. J. 176 (1978) 422-433). The cell suspension was adjusted to a cell concentration of 10^6 cells per ml and distributed uniformly on titer dishes containing 24 1-ml titer cells (wells). These were kept for two hours in a humidified incubator filled with air enriched with 7% CO2. Cells not adhering to the titer well walls were then removed by washing. The remaining macrophage cells adhering to the walls were incubated for about 12 hours in a suspension medium to which 0.1% of bovine serum albumin (BSA=Bovine Serum Albumin) was added. The suspension medium was then replaced by a Hanks salt solution (=Hanks Balanced Salt Solution=HBSS) with 10 mmoles of Hepes (=hydroxyethylpiperazinoethanesulfonic acid) to which a 0.1% strength solution of the test substances in aqueous, 1% strength dimethylformamide or only the solvent had been added. After 15 minutes the arachidonic acid metabolism was stimulated by adding […] of zymosan (=glycoprotein mixture isolated from cell walls of beer yeast, Saccharomyces cerevisiae, Manufactured by Sigma Chemical Co., Munich) per titre cell. After 2 hours samples of the respective supernatant liquid in each cell were examined for their 6-keto-PGF1α and LTC4 contents by an enzyme immunoassay (=EIA). This EIA is carried out following the method of Pradelles et al. (Analytical Chem. 57 (1985), 1170-1173). The determination of LTC4 and the determination of 6-keto-PGF1α were each carried out on suitable dilutions of the samples (1:50 to 1:250 for the LTC4 determination and 1:250 to 1:1,250 for the 6-keto-PGF1α determination) in comparison with a comparative scale. To determine the inhibiting effect of a 10^-5 molar concentration of the compounds, the amounts of reference eicosanoid were determined, and the inhibiting effect was calculated therefrom in % inhibition compared to the measurements of the zymosan controls.

[3] = system: 5-lipoxygenase (LTC4 release); experiment: 5-Lipoxygenase inhibition: LTC4 release from zymosan-stimulated mouse peritoneal macrophage cells; assay type: cell-based; conditions: Peritoneal macrophage cell, read-out: In vitro % inhibition upon release of LTC4
Source text: as §1, §2, §3, §4

mice = experiment: Determination of minimum toxic dose; assay type: in vivo; conditions: mouse, per os; lowest dose producing death or severe toxic symptoms, maximum dose 300 mg/kg, 24 hours
Procedure: 2. Determination of Minimum Toxic Dose
Maximum doses of 300 mg/kg of the test substance were administered orally to male mice weighing 20-25 g. The animals were observed carefully for 3 hours for toxicity symptoms. In addition, all symptoms and deaths were recorded over a period of 24 hours after administration. Associated symptoms were also observed and recorded. If death or severe toxic symptoms were observed, additional mice were administered increasingly lower doses. The lowest dose which produced death or severe toxic symptoms is given in the following Table B as the minimum toxic dose.

[4] = zymosan-stimulated mouse peritoneal macrophage cells, 10^-5 mole/l

How did the “% inhibition of the PAF-induced aggregation of rabbit blood platelets” value (“% inhibition” below) [1] turn out when N#CC1(c2ccccc2)CCN(CCCC2Oc3ccc(Cl)cc3NC2=O)CC1 (stereo not shown) [Example 14] was run?
Its value is 57%.

And the inhibition at 10 µM ([2]; Mus musculus)?
The inhibition at 10 µM was 25%.

And the inhibition at 10 µM ([3]; Mus musculus)?
Its inhibition at 10 µM is 10%.

O=C1Nc2ccccc2SC1CCCN1CCC(Cc2ccccc2)CC1 (stereo not shown) [Example 21] was tested. Which Minimum toxic dose (mice) did it give?
The Minimum toxic dose was 100 mg/kg.

What about the “% inhibition” value [1] of the same compound?
The value was 33%.

What about the inhibition at 10 µM [2, 4] of the same compound?
The inhibition at 10 µM was 11%.

And the inhibition at 10 µM [3, 4]?
Its inhibition at 10 µM is 24%.

Cc1cc2c(cc1C)SC(CCCCN1CC=C(c3ccccc3)CC1)C(=O)N2 (stereo not shown) [Example 19] was tested. Which “% inhibition” value [1] did it give?
The value was 72%.

What about the inhibition at 10 µM [2, 4] of the same compound?
The inhibition at 10 µM was 16%.

What about the inhibition at 10 µM [3, 4] of the same compound?
The inhibition at 10 µM was 57%.
